In experiment [1] the test system is HaCaT. As to the kind of experiment: Inhibition of actin polymerization in human HaCaT cells assessed as aggregate-like structure by immunofluorescence technique. The format is cell-based.
The test system of experiment [2] is A549. Put plainly: Cytotoxicity against human A549 cells after 48 hrs by SRB assay. Format: functional, cell-based. The settings on record: A549, 48 h.
A short description of experiment [3]: Cytotoxicity against mouse B16F1 cells after 48 hrs by SRB assay. The format is functional, cell-based. The settings on record: B16-F1, 48 h.
The subject of experiment [4] is SK-MEL-2. Put plainly: Cytotoxicity against human SK-MEL-2 cells after 48 hrs by SRB assay. Format: functional, cell-based. Conditions: SK-MEL-2, 48 h. (In general: In SRB staining, fixed cells bind dye roughly in proportion to their protein.)
For experiment [5], the system named is HaCaT. As to the kind of experiment: Inhibition of actin polymerization in human HaCaT cells assessed as aggregate-like structure at 3.5 ug/mL by immunofluorescence technique. The format is cell-based.
Experiment [6] relates to HaCaT. As to the kind of experiment: Inhibition of actin polymerization in human HaCaT cells assessed as aggregate-like structure at 12 ug/mL by immunofluorescence technique. Format: cell-based.
For experiment [7], the system named is HaCaT. As to the kind of experiment: Inhibition of actin polymerization in human HaCaT cells assessed as aggregate-like structure at 40 ug/mL by immunofluorescence technique. The format is cell-based.
The subject of experiment [8] is HaCaT. As to the kind of experiment: Inhibition of actin polymerization in human HaCaT cells assessed as aggregate-like structure at 1 ug/mL by immunofluorescence technique. Format: cell-based.

Molecules are shown by their SMILES. In brackets after ≈: the same amount, converted by molar mass. Activity calls are given as the source filed them. No cut-off for these calls is given here. Where only a bound is given, the exact number is not on record here.

The term IC50 denotes the point on the concentration scale where inhibition reaches its midpoint. Higher therefore signals weaker potency in that assay. As to `COc1cc(/C=C/C(=O)OC[C@H](Cc2ccc(O)c(OC)c2)[C@H](CO)Cc2ccc(O)c(OC)c2)ccc1O` [HANULTARIN], the Activity result in experiment [1] was “Dose-dependent effect”. The IC50 was 3 µg/mL (≈ 5.57 µM) in experiment [2], 13 µg/mL (≈ 24.1 µM) in experiment [3] and 3 µg/mL (≈ 5.57 µM) in experiment [4]. Moreover, the result in experiment [5] was Active.

As for `COc1cc(/C=C/C(=O)OC[C@H](Cc2ccc(O)c(OC)c2)[C@H](COC(=O)/C=C/c2ccc(O)c(OC)c2)Cc2ccc(O)c(OC)c2)ccc1O`, the IC50 came out at 12 µg/mL (≈ 16.8 µM) in experiment [2], 12 µg/mL (≈ 16.8 µM) in experiment [3] and 10 µg/mL (≈ 14 µM) in experiment [4]. In experiment [6], the outcome was Active.

For `COc1cc([C@H]2OC(=O)[C@H]3[C@@H]2CO[C@@H]3c2ccc(O)c(OC)c2)ccc1O`, the IC50 in experiment [2] is greater than 40 µg/mL; in experiment [3], 13 µg/mL (≈ 34.9 µM); in experiment [4] it was 20 µg/mL (≈ 53.7 µM). Also, the outcome in experiment [7] was inactive.

As to `COc1cc(C[C@@H](CO)[C@H](CO)Cc2ccc(O)c(OC)c2)ccc1O` [(+)-SECOISOLARICIRESINOL], the IC50 in experiment [2], in experiment [3] and in experiment [4] was greater than 40 µg/mL in each case. For the same compound, the outcome in experiment [7] was inactive.

Consider `C=C1[C@@H](C)[C@H]2[C@H](Cc3ccccc3)NC(=O)[C@]23[C@H](OC(C)=O)/C=C/[C@@](C)(O)C(=O)[C@@H](C)C/C=C/[C@H]3[C@@H]1O`, for which the outcome in experiment [8] was Active.

For the compound `COc1cc([C@@H]2OC[C@@H]3[C@H]2CO[C@H]3c2ccc(O)c(OC)c2)ccc1O` [(+)-PINORESINOL], the IC50 in experiment [2], in experiment [3] and in experiment [4] was greater than 40 µg/mL in each case. Further, the outcome in experiment [7] was inactive.

These data come from ChEMBL document CHEMBL1155817, “Hanultarin, a cytotoxic lignan as an inhibitor of actin cytoskeleton polymerization from the seeds of Trichosanthes kirilowii” (Bioorg Med Chem, 2008).
